Reference: publication PMC4178217, “Quinoline 3-sulfonamides inhibit lactate dehydrogenase A and reverse aerobic glycolysis in cancer cells” (Cancer & Metabolism, 2013)

What was measured:
[1] = target: Glycogen synthase kinase 3b (Homo sapiens, UniProt P49841); experiment: Glycogen synthase kinase 3b ANT; assay type: biochemical; conditions: antagonist; read-out: pIC50 Glycogen synthase kinase 3b ANT (converted)
Excerpt: ANT = antagonist (pIC50), AG = agonist (pEC50). pIC50 and pEC50 are the negative logarithms10 of IC50 and EC50, respectively. Click here for file

Snu398 cells [2] = experiment: Metabolomics analysis, Snu398 whole-cell extracts; assay type: cell-based, human; conditions: Snu398 whole-cell lysates, 10 μM, 24 h
recombinant human LDHA = recombinant human LDHA (Homo sapiens, UniProt P00338); experiment: recombinant human LDHA enzyme assay (lactate to pyruvate, NADH via diaphorase/resazurin)
HepG2 cells = experiment: Cell proliferation and survival, HepG2 (trypan blue, Vi-Cell); assay type: cell-based, human; conditions: 4 to 8 days
Procedure: (§1) Sixty thousand Snu398 cells per well were plated in 6-well tissue culture plates in RPMI-1640 medium supplemented with 2.5% charcoal-stripped FBS (Life Technologies). Cells were allowed to attach overnight and then DMSO control or the indicated doses of LDHA inhibitor dissolved in DMSO were added directly to the wells. After 4 to 8 days of incubation in the indicated oxygen conditions, adherent cells were trypsinized, counted, and had their viability assessed by the trypan-blue exclusion method using the Vi-Cell XR Cell Viability Analyzer (Beckman Coulter, Brea, CA, USA). The same procedure was carried out for HepG2 cells, except non-charcoal-stripped FBS was used. For PARP cleavage analysis, both floating and adherent cells were collected after 24 h and the whole-cell extracts were prepared in radioimmunoprecipitation assay (RIPA) buffer (Sigma-Aldrich) supplemented with protease and phosphatase inhibitor cocktails (Sigma-Aldrich). Solubilized proteins were separated by SDS-PAGE, transferred onto nitrocellulose membrane, and detected with each specific antibody.

[3] = rat plasma protein equilibrium dialysis assay; assay type: in vitro ADME; conditions: read-out: rat plasma protein binding (converted)
MDA-MB-453 cells [4] = experiment: Lactate production in normoxia/hypoxia, MDA-MB-453 (YSI analyzer); conditions: Homo sapiens, MDA-MB-453, 2 h, read-out: lactate production EC50 in hypoxia
PKM2 in Snu398 cells = experiment: PKM2 tetramerization (native gel, western immunoblotting); assay type: cell-based, human; conditions: Snu398, 6 h
Procedure: One and a half million cells per well were plated in 6-well tissue culture plates in R10 medium and allowed to attach overnight. The following morning, cells were washed and medium replaced with 2 mL/well of low-glucose medium. DMSO control or the indicated doses of LDHA inhibitor dissolved in DMSO were added to the wells and cells were incubated at 37°C for 6 h. Following the incubation, cells were washed, scraped into 200 μl of distilled de-ionized water and homogenized on ice using OMNI THq homogenizer (Omni International, Kennesaw, GA, USA). Homogenates were cleared by centrifugation and protein concentration measured by bicinchoninic acid (BCA) assay (Thermo Fisher Scientific, Waltham, MA, USA). PK activity was determined using PK Activity kit (BioVision Research Products) per manufacturer’s instructions and normalized to protein concentration. For detection of PKM2 oligomerization, the same protein samples were separated by non-denaturing gel electrophoresis using the NativePAGE™ gel system (Life Technologies), transferred onto polyvinylidene difluoride (PVDF) membranes and subjected to western immunoblotting with anti-PKM2 antibody.

Snu398 cells [5] = experiment: Oxygen consumption and extracellular acidification rates, Snu398 (Seahorse); assay type: cell-based; conditions: Homo sapiens, SNU-398, 92 min, Snu398, 92 minutes after addition
Procedure: One hundred twenty thousand Snu398 or HepG2 human hepatocellular carcinoma cells per well were plated in XF24 PS or XF96 PET cell culture microplates (Seahorse Biosciences, North Billerica, MA, USA) and allowed to attach and proliferate for 18 h. Cells were equilibrated with DMEM lacking bicarbonate (Seahorse Biosciences) supplemented with glucose at 37°C for 1 h in an incubator lacking CO2. The rate of change of dissolved O2 (oxygen consumption rate, OCR) and rate of change of pH (extracellular acidification rate, ECAR) in medium immediately surrounding the cells was measured in the XF24 Analyzer (Seahorse Biosciences) per manufacturer’s instructions. Compound doses were injected into the wells at the indicated times. For dose response curves, the OCR and ECAR levels obtained in each well before compound addition were subtracted from the values obtained 92 minutes after compound addition.

MDA-MB-453 cells [6] = experiment: ECAR after rotenone/antimycin, MDA-MB-453 (Seahorse XF96); assay type: cell-based; conditions: Homo sapiens; MDA-MB-453, after rotenone/antimycin
Procedure: For XF96 experiments breast cancer cells were seeded in DMEM without bicarbonate at 16,000/well in XF96 V3 PET plates (Seahorse Biosciences) coated with CellTak (BD Biosciences, San Jose, CA, USA). […] HepG2 cells were seeded at 16K/well in XF96 V3 PET plates and left overnight for attachment. The medium was exchanged with DMEM without bicarbonate prior to readings on the XF96 Analyzer (Seahorse Biosciences).

[7] = human plasma protein binding by equilibrium dialysis; assay type: in vitro ADME
Snu398 cells [8] = experiment: Cell proliferation and survival, Snu398 (trypan blue, Vi-Cell); assay type: cell-based, human
Procedure: as §1

[9] = system: permeabilized HepG2 cells; experiment: Seahorse XF96 permeabilized cells (mitochondrial function); assay type: cell-based, human
Procedure: HepG2 cells were seeded overnight in DMEM, 10% FBS, at 16,000 cells/well in an XF96 V3 PET plate. The next day, the medium was removed, and the wells were rinsed and filled with mitochondrial assay solution (MAS: 70 mM sucrose, 220 mM mannitol, 10 mM KH2PO4, 5 mM MgCl2, 2 mM HEPES, 1.0 mM EGTA) containing 10 mM pyruvate/10 mM malate/4 mM ADP and 2 nM XF Plasma Membrane Permeabilizer (PMP) (Seahorse Biosciences). […]. OCR and ECAR readings were determined for three cycles (two minutes mixing, two minutes measuring) after each compound addition.

PK analysis in mice = assay type: in vivo, male CD mice; conditions: oral 100 mg/kg, detection limit 2.5 ng/mL
Procedure: All studies were conducted after review by the Institutional Animal Care and Use Committee at GlaxoSmithKline (GSK) and in accordance with the GSK Policy on the Care, Welfare and Treatment of Laboratory Animals.

Chain of Glycogen synthase kinase 3b (P49841 whole entry): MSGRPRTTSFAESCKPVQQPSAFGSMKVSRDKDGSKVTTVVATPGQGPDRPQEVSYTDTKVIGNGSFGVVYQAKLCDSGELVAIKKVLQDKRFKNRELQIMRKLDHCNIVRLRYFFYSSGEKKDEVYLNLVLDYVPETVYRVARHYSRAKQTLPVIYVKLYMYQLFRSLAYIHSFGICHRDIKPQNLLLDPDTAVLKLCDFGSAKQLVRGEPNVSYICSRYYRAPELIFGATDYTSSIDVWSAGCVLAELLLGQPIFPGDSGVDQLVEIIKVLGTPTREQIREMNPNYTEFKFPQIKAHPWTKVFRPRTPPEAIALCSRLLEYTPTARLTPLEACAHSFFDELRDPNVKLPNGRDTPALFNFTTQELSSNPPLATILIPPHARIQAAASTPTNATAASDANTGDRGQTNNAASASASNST

SMILES | IC50 [1] | increase of cytosolic glycolysis intermediates (Snu398 cells [2]) | IC50 (recombinant human LDHA) | HepG2 survival (HepG2 cells) | fraction unbound [3] | EC50 (MDA-MB-453 cells [4]) | PKM2 tetramerization (PKM2 in Snu398 cells) | EC50 (Snu398 cells [5]; read-out: ECAR change EC50) | EC50 (Snu398 cells [5]; read-out: OCR change EC50) | EC50 (MDA-MB-453 cells [6]) | fraction unbound [7] | EC50 (Snu398 cells [8]; Homo sapiens, SNU-398, Snu398, 4 to 8 days, read-out: viable cell number EC50) | dose sufficient to induce cell death (Snu398 cells [8]; Snu398, with FK866) | concentrations with no changes in OCR or ECAR ([9]; permeabilized HepG2, pyruvate/malate/ADP) | doses with direct mitochondrial effects (reduced mitochondrial respiration) ([9]; permeabilized HepG2, decreased OCR, increased ECAR) | blood compound level (PK analysis in mice)
COc1ncc(-c2ccc3c(Nc4cc(C(=O)O)cc(C5CCCC5)c4)c(S(=O)(=O)NC4CC4)cnc3c2)c(OC)n1 [Compound 2] | 31.6 µM | ≤ 40 fold | 0.016 ± 0.007 µM | – | – | – | – | – | – | – | – | – | – | – | – | –
COc1ncc(-c2ccc3c(Nc4cc(Oc5cc(F)cc(F)c5)cc(C(=O)O)c4)c(S(=O)(=O)NC4CC4)cnc3c2)c(OC)n1 [Compound 1] | – | – | – | did not change HepG2 survival except at the highest dose | 0.012 | 10 µM | dose dependently promoted formation of the active tetrameric form of PKM2 | 0.6 ± 0.2 µM | 0.5 ± 0.3 µM | 10 µM | 0.013 | 2.9 ± 0.6 µM | 3 µM | up to 3 μM | ≥ 10 µM | ≤ 2.5 ng/mL
